Structures can show the parent of a compound that is named as a salt.
melting point [°C]	Structure (SMILES)
111.6	N#Cc1ccc(NC2CCN(Cc3cccc(C(F)(F)F)c3)CC2)nc1
198.8	N#Cc1ccc(NC2CCN(Cc3cc(F)cc(C(F)(F)F)c3)CC2)nc1
102.6	N#Cc1ccc(NC2CCN(Cc3cc(F)cc(F)c3)CC2)nc1
129.5	N#Cc1ccc(NC2CCN(Cc3cc(F)c(F)c(F)c3)CC2)nc1
115.2	N#Cc1cccc(NC2CCN(Cc3cc(F)cc(C(F)(F)F)c3)CC2)n1
268.7	Fc1ccc(CN2CCC(Nc3ccc(C(F)(F)F)cn3)CC2)cc1F (as salt: hydrochloric acid salt)

Reference: patent US20100137368A1, “PYRIDINE DERIVATIVES AS FAST DI[…] 2 RECEPTOR ANTAGONISTS” (JANSSEN PHARMACEUTICA N.V., priority 2007, published 2010)
